Experimental data reported in patent US20240002379A1, “ASYMMETRIC CONJUGATE COMPOUNDS” (Pheon Therapeutics Ltd., priority 2016, published 2024).
Where two headings read alike, the source gives them in different places.

How the values were obtained:
[1] = system: FaDu (head and neck cancer) cell line; test: MTT cytotoxicity assay, FaDu; type: cell-based; conditions: Homo sapiens, MTT assay, 72 hour incubation
Method: (§1) Tumor cell lines were maintained in RPMI1640 medium supplemented with 10% heat-inactivated fetal bovine serum, 2 mM L-glutamine and 1 mM sodium pyruvate. 1800 cells per well were seeded in a volume of 180 μl in a 96-well flat bottom polystyrene plate. The cells were allowed to adhere overnight at 37° C. in a CO2 incubator. Ligands were initially formulated in DMSO, and stocks stored at −80° C. They were then further formulated at lox concentration in RPMI1640 medium. 20 ul of diluted samples were added into each treatment well. On each plate, blank wells with no cells, and untreated wells containing cells, were included. Plates were then cultured at 37° C. in a CO2 incubator for 72 hrs. Cytotoxicity was evaluated using a tetrazolium salt-based assay, the MTT assay. After 72 hours, the supernatant was removed from each well and 200 μl of a sterile filtered 500 μg/ml MTT solution in water added to each well. The plates were then incubated at 37° C. in a CO2 incubator for 4 hrs. The supernatant was then removed and the formazan crystals formed solubilized by adding 150 μl of DMSO to each well. The plate was then read on a plate reader at 540 nm, and percentage cell survival calculated as follows: ((mean absorbance treated wells at concentration x−mean absorbance blank wells)[…](mean absorbance untreated wells at concentration x−mean absorbance blank wells))×100. Data were plotted as concentration in nM vs. % cell survival in Microsoft Excel, and IC50 values (concentration where cell survival is reduced by a half) were determined from the graph.

PC3 (prostate) cell line = test: MTT cytotoxicity assay, PC3; type: cell-based; conditions: MTT assay, 72 hour incubation, read-out: Cytotoxicity PC3 (nM, 72 hour)
Method: as §1

[2] = system: linear double-stranded HexARev DNA fragment; test: DNA cleavage assay, HexARev fragment; type: biochemical; conditions: ligand concentration 10 μM and 100 nM (FIG. 16)
Method: The ability of a further series of compounds 13, 42, 59, 99 and the PBD dimer Talirine to cross-link DNA was determined using an assay involving a linear double-stranded HexARev fragment (FIG. 15).
The ability of 13 and of a series of compounds to cleave double-stranded DNA was investigated using a modification of the previously established DNA footprinting assay (34). Following an overnight incubation of the ligand-DNA complexes, the mixture was mixed with strand separation buffer containing 10 mM EDTA, 10 mM NaOH, 0.1% bromophenol blue, 80% formamide and incubated at 100° C. for 3 min. The mixture was then immediately cooled on ice and run on an 8% denaturing gel. […] Using the GA marker, these additional bands were identified as cleavage products produced by 13 at certain A sites of the DNA fragment.
The preparation of the TyrT DNA fragment (FIG. 8) and HexARev DNA fragment (FIG. 15) have been previously described (34). Briefly, the sequence which had been cloned into the BamHI site of pUC18 was obtained by cutting with HindIII and EcoRI. Radiolabelled DNA fragments were prepared by filling in the 3′-end of the HindIII site with [α-^32P]dATP using Klenow DNA polymerase (exo-).
The radiolabelled DNA fragment was separated from the remainder of the plasmid DNA on a 6% non-denaturing polyacrylamide gel. The gel (20 cm long, 0.3 mm thick) was run at 400 V in 1×TBE running buffer for about 1-2 h, until the bromophenol blue had run most of the way down the gel. The glass plates were separated and the position of the labelled DNA fragment was established by short (1 min) exposure to an X-ray film. The relevant band was then cut from the gel and the radiolabelled DNA eluted by adding 300 μL 10 mM Tris-HCl, pH 7.5 containing 0.1 mM EDTA and gently agitating overnight at room temperature. The eluted DNA was finally precipitated with ethanol and re-suspended in a suitable volume of 10 mM Tris-HCl, pH 7.5 containing 0.1 mM EDTA buffer so as to give at least 10 counts per second/μL on a hand-held Geiger counter. With fresh plasmid and α-^32P-dATP this process typically generated about 150 μL of radiolabelled fragment DNA. The absolute concentration of the DNA is not important, and it is typically lower than 10 nM.
Compounds such as 13 were synthesised as described above and the PBD dimer Talirine was obtained from Aurum Pharmatech LLC. Stock solution was prepared by dissolving the ligands in DMSO to give a concentration of 10 mM. From this stock solution, working solutions of the desired concentration were prepared by diluting with 10 mM Tris-HCl, pH 7.5 containing 10 mM NaCl.
Radiolabelled DNA (1.5 μL) was mixed with 1.5 μL ligand solution of various concentrations (10 μM-10 nM) and incubated overnight at 37° C.
Labelled DNA (1.5 μL) was mixed with 20 μL sterile water and 5 μL of denaturing loading solution (80% formamide containing 10 mM EDTA, 10 mM NaOH, 0.01% bromophenol blue). The sample was then incubated at 100° C. for 20 min with the micro-centrifuge tube cap open to allow evaporation.
Loading solution (4.5 μL) was added to samples from Section 2.1. The digestion products were boiled for 3 min at 100° C. and quickly cooled on ice prior to electrophoresis. Separation was performed on an 8% denaturing polyacrylamide gel (40 cm long, 0.3 mm thick) at 1500V for about 2 h until the dye reached the bottom of the gel. […]

Row | SMILES | IC50 ([1]; read-out: IC50 value in FaDu) | IC50 (PC3 (prostate) cell line) | cleavage of HexARev DNA fragment [2] | IC50 ([1]; read-out: Cytotoxicity FaDu (nM, 72 hour))
1 | COc1cc2c(cc1OCc1cccc(CC(=O)N3C[C@@H](CCl)c4c3cc(O)c3ccccc43)c1)N=C[C@@H]1CCCCN1C2=O [Compound 42, (S)-3-((3-(2-((S)-1-(Chloromethyl)-5-hydroxy-1,2-dihydro-3H-benzo[e]indol-3-yl)-2-oxoethyl)benzyl)oxy)-2-methoxy-7,8,9,10-tetrahydrobenzo[e]pyrido[1,2-a][1,4]diazepin-12(6aH)-one] | 0.01 nM | 0.03 nM | cleave DNA | –
2 | COc1cc2c(cc1OCCCC(=O)N1C[C@@H](CCl)c3c1cc(O)c1ccccc31)N=C[C@@H]1CCCCN1C2=O [Compound 13, (S)-3-(4-((S)-1-(Chloromethyl)-5-hydroxy-1,2-dihydro-3H-benzo[e]indol-3-yl)-4-oxobutoxy)-2-methoxy-7,8,9,10-tetrahydrobenzo[e]-pyrido[1,2-a][1,4]diazepin-12(6aH)-one] | – | 1.43 nM | cleave DNA | 1.17 nM
